Data published in ChEMBL document CHEMBL1201862, “PubChem BioAssay data set” (2004).
Calls of active or inactive are those of the source.

How the values were obtained:
[1] = molecular target: T1, Tyrosine-protein phosphatase non-receptor type 5 (Homo sapiens, UniProt P54829); experiment: STEP phosphatase inhibitors, confirmation, biochemical, fluorescence intensity, uHTS hits (AID 602372); assay type: functional; conditions: read-out: IC50_Mean
T1 sequence (P54829 whole entry): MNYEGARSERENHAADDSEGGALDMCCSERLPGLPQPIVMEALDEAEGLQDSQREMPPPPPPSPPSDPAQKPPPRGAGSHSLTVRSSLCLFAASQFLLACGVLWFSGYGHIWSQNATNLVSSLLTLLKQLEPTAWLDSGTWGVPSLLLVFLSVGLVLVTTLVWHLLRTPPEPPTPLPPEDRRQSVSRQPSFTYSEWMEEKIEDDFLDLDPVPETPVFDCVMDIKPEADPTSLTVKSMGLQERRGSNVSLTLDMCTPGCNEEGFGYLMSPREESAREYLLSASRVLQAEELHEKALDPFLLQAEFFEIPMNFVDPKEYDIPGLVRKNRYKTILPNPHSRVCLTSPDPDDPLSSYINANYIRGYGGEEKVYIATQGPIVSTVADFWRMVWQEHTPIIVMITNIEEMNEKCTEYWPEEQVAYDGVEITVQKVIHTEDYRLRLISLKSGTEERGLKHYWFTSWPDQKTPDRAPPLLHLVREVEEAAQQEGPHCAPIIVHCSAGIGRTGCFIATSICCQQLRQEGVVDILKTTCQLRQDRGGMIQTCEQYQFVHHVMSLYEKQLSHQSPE

[2] = molecular target: Dual specificity protein phosphatase 3 (Homo sapiens, UniProt P51452); experiment: VHR phosphatase inhibition, dose response, selectivity assay for STEP inhibitor project, biochemical (AID 602374); assay type: functional; conditions: read-out: IC50_Mean
Dual specificity protein phosphatase 3, sequence (P51452 whole entry): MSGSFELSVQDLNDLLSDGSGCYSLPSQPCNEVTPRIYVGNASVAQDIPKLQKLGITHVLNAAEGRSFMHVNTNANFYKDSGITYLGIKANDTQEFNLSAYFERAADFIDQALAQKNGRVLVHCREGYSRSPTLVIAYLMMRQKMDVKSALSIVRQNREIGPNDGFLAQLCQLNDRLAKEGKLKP

[3] = molecular target: T2, Tyrosine-protein phosphatase non-receptor type 11 (Homo sapiens, UniProt Q06124); experiment: SHP2 phosphatase inhibition, dose response, selectivity assay for STEP inhibitor project, biochemical (AID 602367); assay type: functional; conditions: read-out: IC50_Mean
T2 sequence (Q06124 whole entry): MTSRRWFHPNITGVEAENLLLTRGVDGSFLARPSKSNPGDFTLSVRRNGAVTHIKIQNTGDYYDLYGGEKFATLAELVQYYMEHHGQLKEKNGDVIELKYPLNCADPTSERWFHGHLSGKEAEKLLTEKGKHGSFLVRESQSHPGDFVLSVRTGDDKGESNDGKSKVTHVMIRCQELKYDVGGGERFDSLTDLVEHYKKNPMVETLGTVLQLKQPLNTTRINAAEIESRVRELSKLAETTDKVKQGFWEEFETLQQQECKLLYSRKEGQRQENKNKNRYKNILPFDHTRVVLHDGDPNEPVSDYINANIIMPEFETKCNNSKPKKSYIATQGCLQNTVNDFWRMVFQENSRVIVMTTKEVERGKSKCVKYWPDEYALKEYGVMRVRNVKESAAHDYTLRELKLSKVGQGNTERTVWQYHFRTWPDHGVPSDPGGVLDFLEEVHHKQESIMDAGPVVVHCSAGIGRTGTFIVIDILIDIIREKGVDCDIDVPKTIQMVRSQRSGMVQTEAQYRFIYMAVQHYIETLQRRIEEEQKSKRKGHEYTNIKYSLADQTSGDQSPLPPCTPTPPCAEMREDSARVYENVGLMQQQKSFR

[4] = off-target signal loss in HeLa-CEM21 co-culture – HeLa F-luc CTL cells, cherry-picked, counter-screen for HIV-1 Env fusion inhibitor project, dose response (AID 652040); assay type: functional, cell-based;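 further: potency for signal decrease marking cytotoxic or nonspecific inhibition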
[5] = inhibitors of HIV Env-driven cell fusion, dose response, cherry-pick (AID 652057); assay type: functional, cell-based
[6] = inhibitors of clade B AD8 Env fusion, dose response, cell-based, cherry-pick (AID 652062); assay type: functional;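 further: luciferase signal from cell-cell fusion driven by HIV-1 clade B AD8 Env; potency is for inhibitors of fusion seen as a drop in luminescence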
[7] = ZM109 Env clade C HIV-1 fusion inhibitors, dose response, HeLa effector, CEM target cells, luciferase, cherry-pick (AID 652058); assay type: functional, cell-based
[8] = molecular target: 26S proteasome non-ATPase regulatory subunit 14 (Homo sapiens, UniProt O00487); experiment: inhibition of proteasome subunit RPN11 – biochemical, fluorescence polarization, uHTS hits, confirmation (AID 602368); assay type: functional
[9] = molecular target: 72 kDa type IV collagenase (Homo sapiens, UniProt P08253); experiment: Dose Response validation of uHTS RPN11 inhibitor hits using a MMP-2 Fluorescence assay.; assay type: functional
[10] = molecular target: Photoreceptor-specific nuclear receptor (Homo sapiens, UniProt Q9Y5X4); experiment: NR2E3 inverse agonists, dose response, biochemical, TR-FRET (AID 463256); assay type: functional
[11] = molecular target: Prothrombin (Bos taurus, UniProt P00735); experiment: thrombin inhibition, dose response, biochemical, fluorescence polarization, uHTS hits (AID 602369); assay type: functional
[12] = molecular target: Peroxisome proliferator-activated receptor gamma/Nuclear receptor corepressor 2 (Homo sapiens, UniProt P37231+Q9Y618); experiment: Counterscreen for NR2E3 inverse agonists: TR-FRET-based biochemical high throughput dose response assay to identify inverse agonists of the interaction between peroxisome proliferator-activated receptor gamma (PPARg) and nuclear receptor co-repressor 2 (NCOR2).; assay type: functional
Peroxisome proliferator-activated receptor gamma/Nuclear receptor corepressor 2, sequence (P37231 whole entry, the tested form may be a part): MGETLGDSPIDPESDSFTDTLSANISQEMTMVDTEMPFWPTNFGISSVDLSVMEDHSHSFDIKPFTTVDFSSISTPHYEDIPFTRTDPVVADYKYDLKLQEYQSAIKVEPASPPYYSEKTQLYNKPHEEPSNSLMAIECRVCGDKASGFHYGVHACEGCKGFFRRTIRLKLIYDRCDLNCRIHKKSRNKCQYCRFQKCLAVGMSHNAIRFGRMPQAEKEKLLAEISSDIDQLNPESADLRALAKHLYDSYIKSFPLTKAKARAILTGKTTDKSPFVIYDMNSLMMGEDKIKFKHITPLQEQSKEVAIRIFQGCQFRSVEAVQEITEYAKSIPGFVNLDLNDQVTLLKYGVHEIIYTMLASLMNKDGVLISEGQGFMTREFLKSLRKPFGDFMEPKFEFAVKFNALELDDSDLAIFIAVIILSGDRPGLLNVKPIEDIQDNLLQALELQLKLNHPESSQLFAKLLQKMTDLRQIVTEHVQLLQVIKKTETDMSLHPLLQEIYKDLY
Peroxisome proliferator-activated receptor gamma/Nuclear receptor corepressor 2, sequence (Q9Y618 whole entry, the tested form may be a part): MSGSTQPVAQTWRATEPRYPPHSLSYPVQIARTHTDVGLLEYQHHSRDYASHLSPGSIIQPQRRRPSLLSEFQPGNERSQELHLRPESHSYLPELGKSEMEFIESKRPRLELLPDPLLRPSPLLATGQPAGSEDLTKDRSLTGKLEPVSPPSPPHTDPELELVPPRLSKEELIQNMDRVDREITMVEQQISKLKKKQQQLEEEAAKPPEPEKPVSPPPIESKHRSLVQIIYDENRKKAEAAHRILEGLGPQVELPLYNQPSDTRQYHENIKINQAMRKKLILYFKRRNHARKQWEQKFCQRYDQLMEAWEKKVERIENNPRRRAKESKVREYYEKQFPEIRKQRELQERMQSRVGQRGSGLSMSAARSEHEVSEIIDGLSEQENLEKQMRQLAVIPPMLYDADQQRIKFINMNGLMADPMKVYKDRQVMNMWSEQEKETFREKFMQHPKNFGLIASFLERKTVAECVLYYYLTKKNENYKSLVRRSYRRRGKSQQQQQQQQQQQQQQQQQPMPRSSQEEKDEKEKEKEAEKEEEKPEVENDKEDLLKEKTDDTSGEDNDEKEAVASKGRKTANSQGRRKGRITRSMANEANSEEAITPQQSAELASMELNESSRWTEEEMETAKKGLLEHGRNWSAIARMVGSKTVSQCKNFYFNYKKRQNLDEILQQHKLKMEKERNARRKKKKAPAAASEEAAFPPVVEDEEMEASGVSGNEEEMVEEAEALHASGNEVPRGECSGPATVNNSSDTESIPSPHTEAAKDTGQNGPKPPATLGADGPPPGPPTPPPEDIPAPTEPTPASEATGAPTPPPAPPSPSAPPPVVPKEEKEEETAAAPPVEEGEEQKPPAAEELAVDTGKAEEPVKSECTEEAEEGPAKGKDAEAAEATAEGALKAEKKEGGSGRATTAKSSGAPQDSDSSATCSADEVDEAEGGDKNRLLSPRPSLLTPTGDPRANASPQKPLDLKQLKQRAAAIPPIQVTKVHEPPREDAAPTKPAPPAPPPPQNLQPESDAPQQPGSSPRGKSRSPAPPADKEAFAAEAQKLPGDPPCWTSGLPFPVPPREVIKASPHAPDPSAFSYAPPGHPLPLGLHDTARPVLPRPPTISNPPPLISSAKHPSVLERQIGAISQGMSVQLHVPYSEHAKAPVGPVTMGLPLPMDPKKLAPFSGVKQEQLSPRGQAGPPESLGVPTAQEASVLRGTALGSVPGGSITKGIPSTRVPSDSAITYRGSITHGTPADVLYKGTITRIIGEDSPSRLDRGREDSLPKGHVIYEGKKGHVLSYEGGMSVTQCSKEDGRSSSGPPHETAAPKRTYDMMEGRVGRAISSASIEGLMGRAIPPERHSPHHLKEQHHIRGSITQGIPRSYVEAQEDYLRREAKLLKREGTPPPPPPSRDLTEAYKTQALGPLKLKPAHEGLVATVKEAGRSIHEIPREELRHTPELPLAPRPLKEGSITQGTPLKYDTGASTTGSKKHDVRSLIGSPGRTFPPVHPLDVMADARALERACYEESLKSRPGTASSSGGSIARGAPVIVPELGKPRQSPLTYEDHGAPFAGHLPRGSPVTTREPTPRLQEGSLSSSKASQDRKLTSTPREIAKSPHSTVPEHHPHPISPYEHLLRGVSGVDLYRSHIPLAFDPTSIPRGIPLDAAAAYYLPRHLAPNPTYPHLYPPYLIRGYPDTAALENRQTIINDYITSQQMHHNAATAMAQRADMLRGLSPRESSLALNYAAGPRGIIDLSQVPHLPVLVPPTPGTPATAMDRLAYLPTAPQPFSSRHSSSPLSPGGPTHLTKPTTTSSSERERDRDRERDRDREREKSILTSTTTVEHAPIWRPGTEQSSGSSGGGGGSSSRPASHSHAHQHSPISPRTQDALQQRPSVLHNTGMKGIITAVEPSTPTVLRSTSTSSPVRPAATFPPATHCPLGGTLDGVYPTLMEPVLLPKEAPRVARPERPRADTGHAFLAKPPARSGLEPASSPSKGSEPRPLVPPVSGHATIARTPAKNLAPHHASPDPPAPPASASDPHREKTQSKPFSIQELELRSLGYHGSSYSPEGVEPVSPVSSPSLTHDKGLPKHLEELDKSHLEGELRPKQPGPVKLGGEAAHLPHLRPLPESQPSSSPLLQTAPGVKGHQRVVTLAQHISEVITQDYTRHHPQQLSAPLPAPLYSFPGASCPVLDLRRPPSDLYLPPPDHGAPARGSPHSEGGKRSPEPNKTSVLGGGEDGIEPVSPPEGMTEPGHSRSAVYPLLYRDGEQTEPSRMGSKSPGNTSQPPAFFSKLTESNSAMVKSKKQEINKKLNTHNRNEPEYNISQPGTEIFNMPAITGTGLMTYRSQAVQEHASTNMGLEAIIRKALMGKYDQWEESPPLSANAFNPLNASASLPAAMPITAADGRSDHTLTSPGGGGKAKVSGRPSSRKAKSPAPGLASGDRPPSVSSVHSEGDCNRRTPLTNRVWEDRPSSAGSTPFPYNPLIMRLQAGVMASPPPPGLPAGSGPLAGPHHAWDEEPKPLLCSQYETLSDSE

[13] = molecular target: Disintegrin and metalloproteinase domain-containing protein 17 (Homo sapiens, UniProt P78536); experiment: ADAM17 protease inhibitors, dose response, counter-screen for ADAM10 exosite inhibitor project, biochemical, quenched FRET substrate (AID 743253)
[14] = ADAM10 inhibitors, peptide cleavage, dose response, biochemical, QFRET (AID 743254);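 further: ADAM10 enzyme with the DM2 quenched FRET peptide as substrate; EDANS fluorescence gain as the protease cuts the substrate; inhibitor potency against ADAM10 proteolytic activity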
[15] = molecular target: T3, Histone-lysine N-methyltransferase NSD2 (Homo sapiens, UniProt O96028); assay type: biochemical
T3 sequence (O96028 whole entry): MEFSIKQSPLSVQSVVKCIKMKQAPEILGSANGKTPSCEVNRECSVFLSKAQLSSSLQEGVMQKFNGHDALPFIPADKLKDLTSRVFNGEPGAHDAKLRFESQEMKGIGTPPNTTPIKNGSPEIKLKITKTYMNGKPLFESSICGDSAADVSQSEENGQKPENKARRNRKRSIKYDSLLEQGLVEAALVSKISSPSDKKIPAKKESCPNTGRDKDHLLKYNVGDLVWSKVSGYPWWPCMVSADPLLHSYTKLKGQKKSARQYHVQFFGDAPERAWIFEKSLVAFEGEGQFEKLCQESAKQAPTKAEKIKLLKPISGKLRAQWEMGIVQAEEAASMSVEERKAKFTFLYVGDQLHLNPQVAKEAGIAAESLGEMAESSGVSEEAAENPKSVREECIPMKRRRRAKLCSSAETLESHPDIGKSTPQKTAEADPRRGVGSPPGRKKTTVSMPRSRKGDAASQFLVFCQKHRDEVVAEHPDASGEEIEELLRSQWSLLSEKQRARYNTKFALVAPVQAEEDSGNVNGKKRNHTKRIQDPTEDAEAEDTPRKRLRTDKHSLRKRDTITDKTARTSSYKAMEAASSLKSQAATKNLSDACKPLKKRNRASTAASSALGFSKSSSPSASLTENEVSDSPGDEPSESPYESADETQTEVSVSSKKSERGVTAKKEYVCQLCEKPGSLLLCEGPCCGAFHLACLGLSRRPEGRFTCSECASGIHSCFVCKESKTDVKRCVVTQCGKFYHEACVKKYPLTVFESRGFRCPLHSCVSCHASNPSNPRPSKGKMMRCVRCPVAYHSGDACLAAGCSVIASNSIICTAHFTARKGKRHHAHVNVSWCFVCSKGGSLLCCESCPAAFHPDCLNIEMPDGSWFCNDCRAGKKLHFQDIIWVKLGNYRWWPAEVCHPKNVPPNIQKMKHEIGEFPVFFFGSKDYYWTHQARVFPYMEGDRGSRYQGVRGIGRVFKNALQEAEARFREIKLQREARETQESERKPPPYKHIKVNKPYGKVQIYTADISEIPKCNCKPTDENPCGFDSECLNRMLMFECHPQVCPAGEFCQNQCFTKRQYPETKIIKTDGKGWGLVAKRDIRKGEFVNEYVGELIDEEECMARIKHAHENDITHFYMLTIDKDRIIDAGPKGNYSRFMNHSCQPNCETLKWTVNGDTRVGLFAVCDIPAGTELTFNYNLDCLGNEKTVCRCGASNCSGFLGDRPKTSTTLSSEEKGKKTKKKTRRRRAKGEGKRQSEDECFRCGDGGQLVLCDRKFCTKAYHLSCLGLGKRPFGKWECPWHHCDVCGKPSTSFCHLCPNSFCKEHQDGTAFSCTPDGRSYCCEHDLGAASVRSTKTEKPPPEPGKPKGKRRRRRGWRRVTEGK

[16] = molecular target: Ras and Rab interactor 1/Tyrosine-protein kinase ABL1 (Homo sapiens, UniProt P00519+Q13671); experiment: biochemical; assay type: functional;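 further: biochemical TR-FRET dose-response test measuring inhibition of binding between Rin1 and Abl proteins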
Ras and Rab interactor 1/Tyrosine-protein kinase ABL1, sequence (P00519 whole entry): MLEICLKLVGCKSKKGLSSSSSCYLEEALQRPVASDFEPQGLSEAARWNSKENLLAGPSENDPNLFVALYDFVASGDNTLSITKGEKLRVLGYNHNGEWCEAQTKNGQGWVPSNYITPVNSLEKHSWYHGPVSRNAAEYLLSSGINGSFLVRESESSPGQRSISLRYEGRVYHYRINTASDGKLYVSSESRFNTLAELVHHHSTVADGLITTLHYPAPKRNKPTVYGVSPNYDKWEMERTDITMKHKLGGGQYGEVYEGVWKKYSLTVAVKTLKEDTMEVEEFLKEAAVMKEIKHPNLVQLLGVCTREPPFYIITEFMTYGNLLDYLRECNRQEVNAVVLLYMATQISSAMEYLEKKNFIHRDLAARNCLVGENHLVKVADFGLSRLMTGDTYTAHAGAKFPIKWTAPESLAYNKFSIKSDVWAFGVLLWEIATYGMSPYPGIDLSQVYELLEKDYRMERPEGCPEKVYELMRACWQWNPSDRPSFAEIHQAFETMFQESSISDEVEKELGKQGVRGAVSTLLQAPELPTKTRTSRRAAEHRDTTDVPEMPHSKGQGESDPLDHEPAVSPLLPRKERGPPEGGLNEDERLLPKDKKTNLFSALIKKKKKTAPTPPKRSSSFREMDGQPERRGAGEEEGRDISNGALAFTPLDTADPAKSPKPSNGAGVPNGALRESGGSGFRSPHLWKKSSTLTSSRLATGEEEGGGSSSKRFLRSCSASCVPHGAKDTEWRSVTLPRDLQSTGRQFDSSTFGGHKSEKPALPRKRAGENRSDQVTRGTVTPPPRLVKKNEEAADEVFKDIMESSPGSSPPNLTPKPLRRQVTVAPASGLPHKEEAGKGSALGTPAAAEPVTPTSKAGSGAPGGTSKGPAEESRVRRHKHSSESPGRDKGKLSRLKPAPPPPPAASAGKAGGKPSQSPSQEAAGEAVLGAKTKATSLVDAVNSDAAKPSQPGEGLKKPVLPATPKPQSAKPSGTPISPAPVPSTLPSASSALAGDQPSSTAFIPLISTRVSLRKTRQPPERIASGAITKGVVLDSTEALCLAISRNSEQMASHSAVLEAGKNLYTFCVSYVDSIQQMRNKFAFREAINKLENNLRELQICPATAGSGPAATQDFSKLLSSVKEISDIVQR
Ras and Rab interactor 1/Tyrosine-protein kinase ABL1, sequence (Q13671 whole entry): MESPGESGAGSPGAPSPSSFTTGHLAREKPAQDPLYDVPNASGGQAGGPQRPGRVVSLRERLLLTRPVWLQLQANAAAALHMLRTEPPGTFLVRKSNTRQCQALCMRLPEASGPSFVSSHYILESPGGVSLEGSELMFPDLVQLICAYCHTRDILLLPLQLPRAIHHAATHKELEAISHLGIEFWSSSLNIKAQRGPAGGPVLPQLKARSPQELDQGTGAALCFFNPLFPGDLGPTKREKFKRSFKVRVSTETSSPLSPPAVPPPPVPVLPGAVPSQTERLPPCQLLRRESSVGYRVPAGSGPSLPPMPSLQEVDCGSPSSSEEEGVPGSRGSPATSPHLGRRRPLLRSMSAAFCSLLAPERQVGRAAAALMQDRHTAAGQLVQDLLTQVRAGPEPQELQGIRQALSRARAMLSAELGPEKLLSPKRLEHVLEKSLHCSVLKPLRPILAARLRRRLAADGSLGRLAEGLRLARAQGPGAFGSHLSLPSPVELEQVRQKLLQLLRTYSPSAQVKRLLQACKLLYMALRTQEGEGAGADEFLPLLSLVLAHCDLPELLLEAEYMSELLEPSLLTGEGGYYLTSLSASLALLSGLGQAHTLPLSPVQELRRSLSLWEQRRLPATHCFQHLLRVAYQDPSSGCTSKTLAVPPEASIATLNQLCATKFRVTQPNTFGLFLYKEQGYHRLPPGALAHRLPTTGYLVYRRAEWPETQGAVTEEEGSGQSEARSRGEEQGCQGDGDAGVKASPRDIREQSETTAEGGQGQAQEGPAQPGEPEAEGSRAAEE

[17] = molecular target: Nonstructural protein 1 (Influenza A virus, UniProt Q194T2); assay type: functional, Influenza A virus (A/California/07/2009(H1N1))

In the case of `CC(C)(C)C(=O)Nc1ccc(C(=O)Nc2cccc(Oc3ccc(C(=O)O)c(C(=O)O)c3)c2)cc1`, the IC50 [1] is reported as 13.6 µM (active), the IC50 [2] is reported as 38.4 µM (inactive) and the IC50 [3] is reported as 16.5 µM (active).

For `CCOc1ccc(C(C)=O)cc1COC(=O)c1ccccc1C(=O)N(C)Cc1ccccc1`, the AC50 [4] was 5.14 µM (active), the AC50 [5] was 3.55 µM (active) and the AC50 [6] was 6.39 µM (active). For the same molecule, the AC50 [7] was 4.87 µM (active).

For `O=C(Nc1nc(-c2nc3ccccc3s2)cs1)c1ccco1`, the IC50 [8] was 10.1 µM (active), the IC50 [9] was > 100 µM (inactive) and the IC50 [10] was 2.44 µM (active). For the same molecule, the IC50 [11] was 75.1 µM (active) and the IC50 [12] was 3.92 µM (active).

With `CCCCCCCCN1C(=O)[C@@H](CC(=O)NCc2ccc(OC)c(OC)c2)C[C@@]2(C(=O)OC)C1=C[C@H](C(C)C)O[C@@H]2C1CC1` the IC50 [13] was > 69.5 µM (inactive) and the IC50 [14] was 10.8 µM (inactive).

In the case of `CC1NC(=O)NC1CCCCCC(=O)Nc1ccc(F)cc1` (stereo not drawn), the AC50 [15] is reported as 0.113 µM (active), the IC50 [16] is reported as 0.0187 µM (active) and the IC50 [17] is reported as 0.979 µM (active).

With `CN(C(=O)c1ccc(NC(=O)Cc2ccc(NC(=O)C3CCN(C(=O)c4ccccc4)CC3)cc2)cc1)C1CC1` the IC50 [16] was 0.407 µM (active).
